Results as given in patent US9840503B2, “Heterocyclic compounds and uses thereof” (Incyte Corporation, priority 2015, dated 2017).

Legend:
Format in all cases: biochemical
AXL = AXL (Homo sapiens (Human), UniProt P30530); assay: TAM Enzymatic Assay (HTRF), AXL; settings: 13.8 nM AXL, 100 uM ATP, 60 min room temperature
Experimental: (§1) The assay buffer contained 50 mM HEPES, pH7.5, 10 mM MgCl2, 1 mM EGTA, 0.01% NP-40 and 2 mM DTT. 0.5 ul test compounds dissolved in DMSO were transferred from compound plates to white 384-well assay plates (Greiner […] plates). […] A 1 mM stock solution of peptide substrate Biotin-[…]-amide (Quality Controlled Biochemicals, MA) dissolved in DMSO was diluted to 1 uM in assay buffer containing 100 uM ATP (for AXL and c-MER assays) or 20 uM ATP (for TYRO3 assay). 10 ul enzyme solution (or assay buffer for the enzyme blank) was added to the appropriate wells in each plate, and then 10 ul/well substrate solution was added to initiate the reaction. The plate was protected from light and incubated at room temperature for 60 min. […] The plate was incubated for 1 h at room temperature, and HTRF (homogenous time resolved fluorescence) signal was measured on a PHERAstar FS plate reader (BMG labtech). Percentage of inhibition was calculated for each concentration and IC50 value was generated from curve fitting with GraphPad Prism software.

TYRO3 = TYRO3 (Homo sapiens (Human), UniProt Q06418); assay: TAM Enzymatic Assay (HTRF), TYRO3; settings: 0.366 nM TYRO3, 20 uM ATP, 60 min room temperature
TYRO3, sequence (Q06418 41-890): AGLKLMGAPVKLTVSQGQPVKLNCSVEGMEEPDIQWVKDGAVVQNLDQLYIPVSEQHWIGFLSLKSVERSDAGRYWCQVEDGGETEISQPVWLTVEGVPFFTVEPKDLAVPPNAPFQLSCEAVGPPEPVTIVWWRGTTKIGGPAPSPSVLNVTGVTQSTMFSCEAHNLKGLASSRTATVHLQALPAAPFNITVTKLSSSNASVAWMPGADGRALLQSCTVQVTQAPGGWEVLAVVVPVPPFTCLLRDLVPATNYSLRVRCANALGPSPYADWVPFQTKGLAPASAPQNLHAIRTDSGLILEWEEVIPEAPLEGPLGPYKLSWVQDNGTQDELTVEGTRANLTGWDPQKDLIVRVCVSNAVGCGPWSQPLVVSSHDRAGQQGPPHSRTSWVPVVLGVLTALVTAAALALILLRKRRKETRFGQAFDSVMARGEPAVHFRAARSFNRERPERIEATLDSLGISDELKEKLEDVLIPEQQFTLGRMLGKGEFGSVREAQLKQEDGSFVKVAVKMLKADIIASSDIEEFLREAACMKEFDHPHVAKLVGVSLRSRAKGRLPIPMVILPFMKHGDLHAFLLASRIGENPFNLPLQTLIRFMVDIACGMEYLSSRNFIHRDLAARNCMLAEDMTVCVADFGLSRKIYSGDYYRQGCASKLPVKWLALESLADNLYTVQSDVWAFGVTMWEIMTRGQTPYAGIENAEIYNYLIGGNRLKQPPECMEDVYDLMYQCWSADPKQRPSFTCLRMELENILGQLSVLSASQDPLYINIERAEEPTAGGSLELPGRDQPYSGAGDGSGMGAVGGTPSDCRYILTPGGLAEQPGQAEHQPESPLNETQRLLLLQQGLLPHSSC
Experimental: as §1

c-MER = c-MER (Homo sapiens (Human), UniProt Q12866); assay: TAM Enzymatic Assay (HTRF), c-MER; settings: 4.1 nM c-MER, 100 uM ATP, 60 min room temperature
c-MER, sequence (Q12866 21-999): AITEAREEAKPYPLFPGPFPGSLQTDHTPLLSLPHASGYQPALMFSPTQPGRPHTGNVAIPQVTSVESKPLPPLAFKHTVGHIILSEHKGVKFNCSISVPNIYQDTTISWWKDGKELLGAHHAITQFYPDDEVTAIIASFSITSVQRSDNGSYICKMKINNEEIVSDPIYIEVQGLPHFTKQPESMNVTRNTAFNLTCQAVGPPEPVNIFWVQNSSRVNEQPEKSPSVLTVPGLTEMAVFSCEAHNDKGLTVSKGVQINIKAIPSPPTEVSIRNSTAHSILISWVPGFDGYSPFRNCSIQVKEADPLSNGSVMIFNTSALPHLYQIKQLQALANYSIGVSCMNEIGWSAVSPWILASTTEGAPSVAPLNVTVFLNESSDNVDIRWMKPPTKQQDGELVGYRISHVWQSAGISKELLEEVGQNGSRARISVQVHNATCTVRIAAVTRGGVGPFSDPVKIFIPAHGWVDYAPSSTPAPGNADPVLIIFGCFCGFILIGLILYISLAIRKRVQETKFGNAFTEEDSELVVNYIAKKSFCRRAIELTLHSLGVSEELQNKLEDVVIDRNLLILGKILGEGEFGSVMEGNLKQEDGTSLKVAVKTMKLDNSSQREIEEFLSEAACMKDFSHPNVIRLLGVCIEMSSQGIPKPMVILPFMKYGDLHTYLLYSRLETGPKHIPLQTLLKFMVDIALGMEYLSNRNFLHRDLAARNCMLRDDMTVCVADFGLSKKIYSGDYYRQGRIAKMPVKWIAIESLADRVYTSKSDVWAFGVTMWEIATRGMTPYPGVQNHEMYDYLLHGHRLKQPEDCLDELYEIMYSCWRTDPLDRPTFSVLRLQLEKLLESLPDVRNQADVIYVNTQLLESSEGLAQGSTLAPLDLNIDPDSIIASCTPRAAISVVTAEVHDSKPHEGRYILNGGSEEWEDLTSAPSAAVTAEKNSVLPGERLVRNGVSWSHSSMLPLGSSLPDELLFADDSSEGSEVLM
Experimental: as §1

AXL, sequence (P30530 26-894): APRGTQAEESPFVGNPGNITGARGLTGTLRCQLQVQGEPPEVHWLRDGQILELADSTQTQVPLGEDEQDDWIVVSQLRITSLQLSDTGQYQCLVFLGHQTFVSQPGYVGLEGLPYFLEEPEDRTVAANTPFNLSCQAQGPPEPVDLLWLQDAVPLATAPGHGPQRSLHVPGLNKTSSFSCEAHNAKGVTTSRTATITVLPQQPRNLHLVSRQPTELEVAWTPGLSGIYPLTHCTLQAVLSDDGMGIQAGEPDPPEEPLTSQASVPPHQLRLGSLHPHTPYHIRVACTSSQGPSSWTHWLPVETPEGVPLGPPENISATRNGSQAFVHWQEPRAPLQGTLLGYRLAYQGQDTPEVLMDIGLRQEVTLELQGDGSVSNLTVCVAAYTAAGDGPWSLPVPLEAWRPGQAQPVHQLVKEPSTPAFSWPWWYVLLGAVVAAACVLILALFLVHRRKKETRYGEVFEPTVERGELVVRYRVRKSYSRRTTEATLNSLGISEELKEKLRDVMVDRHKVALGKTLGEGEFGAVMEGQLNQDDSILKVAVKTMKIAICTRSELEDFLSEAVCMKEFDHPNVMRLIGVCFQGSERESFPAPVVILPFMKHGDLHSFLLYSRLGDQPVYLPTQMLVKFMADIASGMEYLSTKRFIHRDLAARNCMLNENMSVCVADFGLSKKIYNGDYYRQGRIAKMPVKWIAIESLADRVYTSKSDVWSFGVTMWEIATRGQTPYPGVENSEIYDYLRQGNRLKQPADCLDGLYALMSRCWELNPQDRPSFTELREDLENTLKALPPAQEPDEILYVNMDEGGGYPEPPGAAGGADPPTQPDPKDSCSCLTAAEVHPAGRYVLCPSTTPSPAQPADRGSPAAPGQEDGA

Structure (SMILES): CCCCNc1ncc2c(n1)N([C@H]1CC[C@H](O)CC1)Cc1cc(CN3CCOCC3)ccc1-2 [Example 1, trans-4-[3-(Butylamino)-8-(morpholin-4-ylmethyl)pyrimido[4,5-c]isoquinolin-5(6H)-yl]cyclohexanol]
- IC50 (AXL): > 1000 nM

Structure (SMILES): CCCCNc1ncc2c3ccc(CNC4CCCCC4)cc3c(=O)n([C@H]3CC[C@H](O)CC3)c2n1 [Example 2, 3-(Butylamino)-8-[(cyclohexylamino)methyl]-5-(trans-4-hydroxycyclohexyl)pyrimido[4,5-c]isoquinolin-6(5H)-one]
- IC50 (TYRO3): < 100 nM
- IC50 (c-MER): < 100 nM

Structure (SMILES): CCCCNc1ncc2c(n1)N([C@H]1CC[C@H](O)CC1)Cc1cc(CNC3CCCCC3)ccc1-2 [Example 3, trans-4-[3-(Butylamino)-8-[(cyclohexylamino)methyl]pyrimido[4,5-c]isoquinolin-5(6H)-yl]cyclohexanol]
- IC50 (TYRO3): < 100 nM
- IC50 (AXL): < 100 nM
- IC50 (c-MER): < 100 nM

Structure (SMILES): CCCCNc1ncc2c3ccc(CNC4CCOCC4)cc3c(=O)n([C@H]3CC[C@H](O)CC3)c2n1 [Example 4, 3-(Butylamino)-5-(trans-4-hydroxycyclohexyl)-8-[(tetrahydro-2H-pyran-4-ylamino)methyl]pyrimido[4,5-c]isoquinolin-6(5H)-one]
- IC50 (TYRO3): 100 to 1000 nM
- IC50 (AXL): > 1000 nM
- IC50 (c-MER): < 100 nM

Structure (SMILES): CCCCNc1ncc2c3ccc(CNCCO)cc3c(=O)n([C@H]3CC[C@H](O)CC3)c2n1 [Example 5, 3-(Butylamino)-5-(trans-4-hydroxycyclohexyl)-8-{[(2-hydroxyethyl)amino]methyl}pyrimido [4,5-c]isoquinolin-6(5H)-one]
- IC50 (AXL): > 1000 nM

Structure (SMILES): CCCCNc1ncc2c3ccc(CNC4CCCCC4)cc3c(=O)n([C@H]3CC[C@H](N)CC3)c2n1 [Example 6, 5-(trans-4-aminocyclohexyl)-3-(butylamino)-8-((cyclohexylamino)methyl)pyrimido[4,5-c]isoquinolin-6(5H)-one]
- IC50 (TYRO3): < 100 nM
- IC50 (c-MER): < 100 nM

Structure (SMILES): CCCCNc1ncc2c3ccc(-c4cnn(C)c4)cc3c(=O)n([C@H]3CC[C@H](O)CC3)c2n1 [Example 7, 3-(Butylamino)-5-(trans-4-hydroxycyclohexyl)-8-(1-methyl-1H-pyrazol-4-yl)pyrimido[4,5-c]isoquinolin-6(5H)-one]
- IC50 (AXL): > 1000 nM

Structure (SMILES): CCCCNc1ncc2c3ccc(-c4c(F)cccc4F)cc3c(=O)n([C@H]3CC[C@H](O)CC3)c2n1 [Example 8, 3-(Butylamino)-8-(2,6-difluorophenyl)-5-(trans-4-hydroxycyclohexyl)pyrimido[4,5-c]isoquinolin-6(5H)-one]
- IC50 (TYRO3): > 1000 nM
- IC50 (AXL): > 1000 nM
- IC50 (c-MER): > 1000 nM

Structure (SMILES): CCCCNc1ncc2c(n1)N([C@H]1CC[C@H](N)CC1)Cc1cc(CNC3CCCCC3)ccc1-2 [Example 9, 5-(trans-4-Aminocyclohexyl)-N-butyl-8-[(cyclohexylamino)methyl]-5,6-dihydropyrimido [4,5-c]isoquinolin-3-amine]
- IC50 (TYRO3): < 100 nM
- IC50 (AXL): < 100 nM
- IC50 (c-MER): < 100 nM

Structure (SMILES): CCCCNc1ncc2c(n1)N([C@H]1CC[C@H](N)CC1)Cc1cc(CNC3CCOCC3)ccc1-2 [Example 10, 5-(trans-4-Aminocyclohexyl)-N-butyl-8-{[(tetrahydropyran-4-yl)amino]methyl}-5,6-dihydropyrimido[4,5-c]isoquinolin-3-amine]
- IC50 (TYRO3): < 100 nM
- IC50 (c-MER): < 100 nM

Structure (SMILES): CCCCNc1ncc2c(n1)N([C@H]1CC[C@H](N)CC1)Cc1cc(CNC3CCCC3)ccc1-2 [Example 11, 5-(trans-4-aminocyclohexyl)-N-butyl-8-((cyclopentylamino)methyl)-5,6-dihydropyrimido[4,5-c]isoquinolin-3-amine]
- IC50 (TYRO3): < 100 nM
- IC50 (c-MER): < 100 nM
